Data set [1] relates to Western equine encephalitis virus. The experiment in a line: microbe, parasite or virus in culture. To be noted: BE(2)-C.
Data set [2] is described as follows: Cytotoxicity against human BE(2)-C cells after 18 to 20 hrs by MTT assay. The data set is classed as cell-based.
Data set [3] in a line: (§1) Half life in BALB/c mouse liver microsomes at 1 uM in presence of NADPH by HPLC-MS/MS method. The data set is classed as ADME. To be noted: BALB/c, liver microsomes. (In general: Liver microsomes are a subcellular fraction often used to study metabolism.)
The nature of data set [4]: Kinetic solubility of the compound in WEEV replication assay medium in presence of 10% fetal bovine serum. Type of data set: physicochemical. The following applies: for solubility kinetic: WEEV replication assay medium with 10% fetal bovine serum, read-out: Kinetic_solubility; for Kinetic_solubility: serum.
The test system of data set [5] is Fort Morgan virus. Kind of data set: Antiviral activity against Fort Morgan virus infected in HEK293 cells assessed as reduction of viral titer by plaque reduction assay relative to untreated control. The data set is classed as functional, cell-based.
Data set [6] is described as follows: Inhibition of host cell cap-dependent translation in Cricetinae BSR-T7 cells assessed as suppression of pSV40-LUC activity at 0.1 to 10 uM after 20 hrs. Type of data set: functional, cell-based.
Another data set deals with Liver. The description is as §1. The data set is classed as ADME. To be noted: microsomes, 1 µM.
Data set [7] relates to Western equine encephalitis virus. The data set is classed as functional.
For data set [8], the system named is Fort Morgan virus. The data set is classed as functional.
Data set [9] concerns Fort Morgan virus. The data set is classed as functional. The source holds these as a separate data set.
Data set [10] deals with Fort Morgan virus. Type of data set: functional. The source holds these as a separate data set.
Data set [11] has as its target MDR1 (ABCB1, P-glycoprotein) (Homo sapiens, UniProt P08183). Kind of data set: Inhibition of human MDR1 expressed in MDCK2 cells assessed as increase of rhodamine 123 uptake at 30 uM up to 240 mins relative to 5 uM tariquidar. Type of data set: ADME, cell-based, MDCK-II. To be noted: MDCK2 cells expressing human MDR1, probe rhodamine 123, read-out: Activity.
Data set [12] concerns Fort Morgan virus. The data set is classed as functional. This is another data set of the same source.
The subject of data set [13] is Western equine encephalitis virus. Type of data set: functional. This is another data set of the same source.
In data set [14] the target is ATP-dependent translocase ABCB1 (Homo sapiens, UniProt P08183). Kind of data set: Inhibition of human MDR1 expressed in MDCK2 cells assessed as increase of rhodamine 123 uptake at 5 uM up to 240 mins. Details: scale not given: the % may be the effect or the level left. The following applies: mdck-ii, 4 h. Type of data set: ADME, cell-based.
Chain of ATP-dependent translocase ABCB1 (P08183 whole entry): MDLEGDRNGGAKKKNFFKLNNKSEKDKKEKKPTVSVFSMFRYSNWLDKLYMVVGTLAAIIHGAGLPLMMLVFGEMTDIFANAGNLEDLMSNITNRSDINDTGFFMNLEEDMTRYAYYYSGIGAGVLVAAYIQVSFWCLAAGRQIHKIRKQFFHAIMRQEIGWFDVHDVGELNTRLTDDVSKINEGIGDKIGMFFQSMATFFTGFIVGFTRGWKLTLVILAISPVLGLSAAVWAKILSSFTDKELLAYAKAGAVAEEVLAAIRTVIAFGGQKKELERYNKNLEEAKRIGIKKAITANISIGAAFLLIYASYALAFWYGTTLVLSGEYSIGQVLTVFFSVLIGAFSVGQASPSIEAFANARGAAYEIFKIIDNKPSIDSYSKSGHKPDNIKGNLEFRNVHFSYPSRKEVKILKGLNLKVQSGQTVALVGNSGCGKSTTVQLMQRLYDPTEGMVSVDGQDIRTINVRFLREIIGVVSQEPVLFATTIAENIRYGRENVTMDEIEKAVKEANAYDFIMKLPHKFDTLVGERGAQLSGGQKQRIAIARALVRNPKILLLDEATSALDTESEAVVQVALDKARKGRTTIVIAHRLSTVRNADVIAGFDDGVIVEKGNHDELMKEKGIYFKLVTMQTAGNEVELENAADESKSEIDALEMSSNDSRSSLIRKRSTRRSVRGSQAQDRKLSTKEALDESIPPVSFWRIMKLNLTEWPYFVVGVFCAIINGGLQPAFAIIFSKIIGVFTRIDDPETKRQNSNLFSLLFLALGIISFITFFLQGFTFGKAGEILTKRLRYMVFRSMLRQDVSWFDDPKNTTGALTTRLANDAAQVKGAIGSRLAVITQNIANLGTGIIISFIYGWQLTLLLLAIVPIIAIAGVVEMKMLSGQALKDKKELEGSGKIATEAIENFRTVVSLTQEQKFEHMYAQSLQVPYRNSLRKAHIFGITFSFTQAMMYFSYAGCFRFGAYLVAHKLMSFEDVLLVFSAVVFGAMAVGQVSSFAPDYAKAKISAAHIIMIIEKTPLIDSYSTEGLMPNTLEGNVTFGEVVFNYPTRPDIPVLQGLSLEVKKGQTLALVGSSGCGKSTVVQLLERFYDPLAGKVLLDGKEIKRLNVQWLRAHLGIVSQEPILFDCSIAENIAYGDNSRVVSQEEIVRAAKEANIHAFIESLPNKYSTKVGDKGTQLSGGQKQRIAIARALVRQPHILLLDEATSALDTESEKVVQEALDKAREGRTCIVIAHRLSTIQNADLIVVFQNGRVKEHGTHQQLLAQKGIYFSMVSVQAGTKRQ
The subject of data set [15] is California encephalitis virus. Kind of data set: Antiviral activity against California encephalitis virus infected in HEK293 cells assessed as reduction of viral titer at 25 uM by plaque reduction assay relative to untreated control. The data set is classed as functional.
Data set [16] deals with Encephalomyocarditis virus. The experiment in a line: Antiviral activity against Encephalomyocarditis virus infected in HEK293 cells assessed as reduction of viral titer at 25 uM by plaque reduction assay relative to untreated control. The data set is classed as functional.
The test system of another data set is BSR-T7. Kind of data set: Inhibition of host cell cap-independent translation in Cricetinae BSR-T7 cells assessed as suppression of pT7/CITE-LUC activity at 0.1 to 10 uM after 20 hrs. The data set is classed as functional, cell-based.
Data set [17] relates to Venezuelan equine encephalitis virus. The experiment in a line: Antiviral activity against Venezuelan equine encephalitis virus TC-83 vaccine infected in HEK293 cells assessed as reduction of viral titer at 25 uM by plaque reduction assay relative to untreated control. The data set is classed as functional.

Active and inactive are the calls of the source.

We go through 23 compounds from ChEMBL document CHEMBL3396967, “Discovery of anthranilamides as a novel class of inhibitors of neurotropic alphavirus replication” (Bioorg Med Chem, 2015).

One may read the IC50 as the concentration needed to halve the response being measured. As a reminder, the CC50 is the concentration that lowers cell viability or growth by half. What is called half-life is the time needed for the level to fall by half in the phase considered.

Chain of MDR1 (ABCB1, P-glycoprotein) (P08183 whole entry): as above

On to `O=C(NCCc1ccncc1)C1CCN(C(=O)[C@@H]2CCCN2C(=O)c2ccc(Cl)cc2)CC1`, for which the IC50 in [1] was more than 100 µM.

As to `O=C(NCCc1ccncc1)C1CCN(C(=O)[C@H]2CCCN2C(=O)c2ccc(Cl)cc2)CC1`, in data set [1], the IC50 is more than 100 µM. This compound had a CC50 in data set [2] of more than 100 µM.

For `O=C(NCCc1ccncc1)C1CCN(C(=O)c2cc3ccccc3n2Cc2ccc(Cl)cc2)CC1`, in data set [3], the half-life at 1 µM came to 9 min. Besides, in [4], the solubility kinetic is 31 µg/mL. The IC50 amounted to 0.53 µM in data set [1], 1 µM with Fort Morgan virus [5] and 0.1 µM in data set [6].

For `O=C(NCCc1ccncc1)C1CCN(C(=O)c2cccc3c2[nH]c2ccccc23)CC1`, the IC50 in [1] stood at 59.2 µM. Besides, the CC50 in data set [2] is more than 100 µM.

For `O=C(NCCc1ccncc1)C1CCN(C(=O)c2ccccc2Oc2ccc(Cl)cc2)CC1`, the t1/2 in the data set with Liver was 18 min. The result (in [7] (25 uM); with Fort Morgan virus [8] (25 uM); with Fort Morgan virus [9] (25 uM); in the data set with Fort Morgan virus [10] (5 uM); in the data set with Fort Morgan virus [12] (5 uM); in data set [13] (5 uM)) was inactive. Moreover, the solubility kinetic in data set [4] worked out at 62 µg/mL. Moreover, in [1], the IC50 turned out to be 6.1 µM. In [11], the inhibition at 4 h, 30 µM stood at 9.3%. In addition, half-maximal cytotoxicity in [2] (CC50) was put at 56 µM.

In the case of `O=C(NCCc1ccncc1)C1CCN(C(=O)c2cccn2Cc2ccc(Cl)cc2)CC1`, in data set [3], the half-life at 1 µM came to 3 min. For the same compound, the solubility kinetic in [4] was 125 µg/mL. The compound further came in with an IC50 in data set [1] of 0.68 µM. This compound returned a CC50 in data set [2] of more than 100 µM.

On to `O=C(NCCc1ccncc1)C1CCN(C(=O)c2ccccc2Nc2ccccc2)CC1`, for which the Kinetic_solubility in data set [4] is more than 250 µg/mL. Also, inhibition in data set [1] was half-maximal at 28.8 µM (IC50). Further, in data set [11], the inhibition at 4 h, 30 µM worked out at 10.9%. The CC50 in [2] was more than 100 µM.

Take `O=C(NCCc1ccncc1)C1CCN(C(=O)NCc2ccc(Cl)cc2)CC1`: in data set [1], half-maximal inhibition (IC50) required 60.2 µM. The same compound displayed a CC50 in data set [2] of more than 100 µM.

In the case of `O=C(NCCc1ccncc1)C1CCN(c2cc(=O)n(-c3ccc(Cl)cc3)c3ccccc23)CC1`, the CC50 in [2] is more than 100 µM.

In the case of `O=C(NCCc1ccncc1)C1CCN(C(=O)c2ccccc2NCCc2ccc(Cl)cc2)CC1`, the Kinetic_solubility in data set [4] is more than 250 µg/mL. Also, inhibition in [1] was half-maximal at 3.49 µM (IC50). Moreover, in data set [11], the inhibition at 4 h, 30 µM is 30.7%. Moreover, the CC50 in [2] came to 86 µM.

Take `COc1cc2c(cc1OC)CN(CCc1ccc(NC(=O)c3cc(OC)c(OC)cc3NC(=O)c3cnc4ccccc4c3)cc1)CC2`: the Activity in data set [14] came out at 1123%.

On to `O=C(NCCc1ccncc1)C1CCN(C(=O)c2ccccc2NCc2ccc(Cl)cc2)CC1`, for which the t1/2 in the data set on Liver came to 15 min. Also, the Activity was found to be 1.6 ×10⁶ PFU/ml in data set [7]; 3.2 ×10⁶ PFU/ml with Fort Morgan virus [8]; 66.6% with Fort Morgan virus [9]; 9.4 ×10⁶ PFU/ml with Fort Morgan virus [10]; 73.3% in the data set with Fort Morgan virus [12]; 11.7 ×10⁶ PFU/ml in [13]. The Kinetic_solubility in [4] was more than 250 µg/mL. In addition, the “fold change (FC)” value in data set [15], in data set [16] and in data set [17] was 10 each time. Further, the results for the IC50 (in [1]; with Fort Morgan virus [5]; in data set [6]) were 0.56 µM, 2.3 µM and 1 µM, respectively. In addition, in the data set on Fort Morgan virus [5], the inhibition result was “Dose-dependent effect”. Besides, in data set [11], the inhibition at 4 h, 30 µM turned out to be 59.6%. Also, the CC50 in [2] was determined as 75.2 µM. Also, in the data set on BSR-T7, the inhibition result was “inactive”.

In turn, `O=C(NCCc1ccncc1)C1CCN(C(=O)Cc2ccc(Cl)cc2)CC1` returned an IC50 in [1] of more than 100 µM. The same compound registered a CC50 in data set [2] of more than 100 µM.

With `O=C(NCCc1ccncc1)C1CCN(C(=O)[C@H]2CCCN2Cc2ccc(Cl)cc2)CC1`, half-maximal inhibition in data set [1] (IC50) required 53.5 µM. In addition, the CC50 in data set [2] was more than 100 µM.

As for `O=C(NCCc1ccncc1)C1CCN(C(=O)c2ccccc2NCc2ccccc2)CC1`, the Kinetic_solubility in data set [4] is more than 250 µg/mL. In addition, the IC50 in [1] stood at 19 µM. In data set [11], the inhibition at 4 h, 30 µM is 2.5%. The midpoint of cytotoxicity in [2], the CC50, lay at 92.2 µM.

In the case of `O=C(NCCc1ccncc1)C1CCN(C(=O)c2cccc3c2[nH]c2ccc(Cl)cc23)CC1`, the IC50 in data set [1] was 18.7 µM. In [2], the midpoint of cytotoxicity, the CC50, lay at 66.1 µM.

`O=C(NCCc1ccncc1)C1CCN(c2cc(=O)n(Cc3ccc(Cl)cc3)c3ccccc23)CC1` gave an IC50 in data set [1] of 10.9 µM. Besides, the CC50 in data set [2] was found to be 34.1 µM.

`O=C(NCCc1ccncc1)C1CCN(C(=O)c2ccccc2Cc2ccc(Cl)cc2)CC1`: the t1/2 in the data set with Liver is 3 min. Moreover, the solubility kinetic in data set [4] turned out to be 62 µg/mL. In addition, in data set [1], the IC50 is 1.46 µM. Also, the inhibition at 4 h, 30 µM in data set [11] was determined as 22.6%. In [2], the CC50 amounted to 70.7 µM.

In [1], `O=C(NCCc1ccncc1)C1CCN(C(=O)[C@@H]2CCCN2Cc2ccc(Cl)cc2)CC1` yielded an IC50 of 13.5 µM. This compound also displayed a CC50 in data set [2] of 91.6 µM.

As to `CN(c1ccc(Cl)cc1)c1ccccc1C(=O)N1CCC(C(=O)NCCc2ccncc2)CC1`, the Kinetic_solubility in data set [4] was more than 250 µg/mL. This compound also displayed an IC50 in data set [1] of 15.4 µM. Besides, in data set [11], the inhibition at 4 h, 30 µM worked out at 3.9%. This compound had a CC50 in [2] of more than 100 µM.

`O=C(NCCc1ccncc1)C1CCN(C(=O)CCc2ccc(Cl)cc2)CC1`: the IC50 in data set [1] is more than 100 µM. Also, in data set [2], the CC50 was more than 100 µM.

In the case of `O=C(NCCc1ccncc1)C1CCN(C(=O)c2ccccc2Nc2ccc(Cl)cc2)CC1`, the t1/2 in the data set on Liver was determined as 19 min. Moreover, the Activity in [7] came to 3.2 ×10⁶ PFU/ml; with Fort Morgan virus [8] it was 3.7 ×10⁶ PFU/ml; with Fort Morgan virus [9], 58.1%; in the data set on Fort Morgan virus [12], 54.6%; in data set [13], 49.2 ×10⁶ PFU/ml. Besides, in data set [4], the Kinetic_solubility was more than 250 µg/mL. Further, the “fold change (FC)” value in data set [15], in data set [16] and in data set [17] was 10 throughout. Further, the IC50 in [1] stood at 1.6 µM; with Fort Morgan virus [5] it was 5.2 µM; in data set [6], 2.2 µM. The inhibition entry in the data set with Fort Morgan virus [5] was “Dose-dependent effect”. The inhibition at 4 h, 30 µM in [11] was 47.7%. The CC50 in data set [2] is more than 100 µM. Besides, the inhibition result in the data set on BSR-T7 is “inactive”.

`O=C(c1ccc(Cl)cc1)c1ccccc1C(=O)N1CCC(C(=O)NCCc2ccncc2)CC1`: the Kinetic_solubility in [4] is more than 250 µg/mL. Besides, the IC50 in [1] was more than 50 µM. Further, the inhibition at 4 h, 30 µM in [11] was determined as 1.8%. Further, in [2], the CC50 was more than 50 µM.
